In PubChem BioAssay (NCI) one finds GI50 and TGI data, which are given here for 21 compounds.

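Where inhibition never reached the appropriate level, the endpoint shown equals the highest concentration tested. Otherwise, values were interpolated linearly from a five-concentration, 48-hour dose response in 96-well plates. GI50 marks 50% less growth. Definition used: TGI = concentration required for complete inhibition of growth.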

Test systems include BT-549 breast; MDA-MB-435; MCF7 breast.
Common to all, as to assay: DTP human tumour cell line panel, 48 h

A word on the GI50: it is the concentration that inhibits growth by half. As usually defined, the TGI is the concentration giving total growth inhibition. For `CCNCCNc1cc(-c2cccc(C(F)(F)F)c2)c(C#N)c2nc3ccccc3n12`, in the assay on BT-549 breast, the GI50 was 2.06 µM and the TGI was found to be 3.75 µM. In the assay with MDA-MB-435, the GI50 was 1.52 µM and the total growth inhibition concentration (TGI) turned out to be 2.88 µM.

`N#CC(C#N)=Cc1ccc(-c2ccc(-c3nc4ccccc4o3)cc2)o1`: the values for the GI50 in the assay with BT-549 breast, with MCF7 breast and in the assay with MDA-MB-435 were > 100 µM, 7.99 µM and 57 µM, respectively. Also, the TGI in the assay with BT-549 breast, with MCF7 breast and with MDA-MB-435 was > 100 µM each time.

Regarding `Brc1ccc(Br)nn1`, the values for the GI50 with BT-549 breast, in the assay on MCF7 breast and with MDA-MB-435 were 1.52 µM, 1.21 µM and 1.75 µM, respectively. Besides, the TGI was determined as 2.96 µM in the assay on BT-549 breast, 2.64 µM with MCF7 breast and 3.55 µM in the assay with MDA-MB-435.

As to `CC(=O)OCC(=O)C1(O)C(C)CC2C3C=C(C)C4=Cc5c(cnn5-c5ccccc5)CC4(C)C3C(O)CC21C` (configuration not stated), the figures for the GI50 in the assay with BT-549 breast, in the assay with MCF7 breast and in the assay on MDA-MB-435 were 1.25 µM, 1.47 µM and 2.33 µM, respectively. Moreover, the TGI is 3.85 µM in the assay on BT-549 breast, 5.22 µM in the assay with MCF7 breast and 7.33 µM with MDA-MB-435.

Regarding `Cc1sc(/N=C2/NC(=O)CS2)nc1-c1nc(/N=C2/NC(=O)CS2)sc1C`, the results for the GI50 in the assay with BT-549 breast, in the assay on MCF7 breast and with MDA-MB-435 were > 50 µM, 19.7 µM and > 50 µM, respectively. Also, the total growth inhibition concentration (TGI) in the assay on BT-549 breast, in the assay on MCF7 breast and with MDA-MB-435 was > 50 µM each time.

For the compound `COc1cc(C2C(C#N)=C(N)Oc3cc4c(cc32)OCO4)cc2c1OCO2` (configuration not stated), the GI50 was 1.8 µM with BT-549 breast and 0.187 µM in the assay with MCF7 breast. The total growth inhibition concentration (TGI) in the assay on BT-549 breast was 29.5 µM; with MCF7 breast, > 75 µM.

As for `C[C@@H](Oc1cc(-c2cnn(C3CC4(CCCNC4)C3)c2)cnc1N)c1c(Cl)ccc(F)c1Cl` (some centres not stated), the GI50 in the assay on BT-549 breast was 1.95 µM; with MCF7 breast it was 0.363 µM; with MDA-MB-435, 0.77 µM. The concentration for total growth inhibition (TGI) with BT-549 breast was determined as 3.72 µM; in the assay with MCF7 breast it was 1.85 µM; in the assay on MDA-MB-435, 2.18 µM.

Consider `CNCCOc1nc2c3cnccc3cc(-c3cc(OC)c(OC)c(OC)c3)c2c2ccncc12`, for which the GI50 is 0.103 µM in the assay on BT-549 breast, < 0.01 µM with MCF7 breast and 0.115 µM in the assay on MDA-MB-435. The total growth inhibition concentration (TGI) stood at 0.613 µM in the assay with BT-549 breast, 0.275 µM in the assay with MCF7 breast and 0.327 µM with MDA-MB-435.

For `COc1ccc(C2C3=C(COC3=O)N(CCO)c3cc4c(cc32)OCCO4)cc1OC` (configuration not stated), the GI50 was 5.06 µM in the assay on BT-549 breast, 0.634 µM in the assay on MCF7 breast and 0.255 µM in the assay with MDA-MB-435. In addition, the TGI in the assay with BT-549 breast was > 47.9 µM; with MCF7 breast, > 50 µM; with MDA-MB-435, 1.78 µM.

Turning to `N#Cc1c(Oc2ccc(F)c(NC(=O)Cc3cccc(C(F)(F)F)c3)c2)ccc2nc(NC(=O)C3CC3)sc12`, the values for the GI50 with BT-549 breast, with MCF7 breast and in the assay on MDA-MB-435 were 2.71 µM, 1.11 µM and 0.137 µM, respectively. The total growth inhibition concentration (TGI) in the assay on BT-549 breast, in the assay on MCF7 breast and in the assay on MDA-MB-435 was > 100 µM in each case.

On to `Oc1[nH]c2ccc(Cl)cc2c1/C=c1/ccc2c(c1)N=C(c1cc(F)cc(F)c1)N=2`, for which, in the assay with BT-549 breast, the GI50 was 2.09 µM and the TGI turned out to be 7.59 µM.

On to `CC(C)N(C[C@H]1O[C@@H](n2cnc3c(N)ncnc32)[C@H](O)[C@@H]1O)C1CC(CCc2nc3ccc(C(C)(C)C)cc3[nH]2)C1` (some centres not stated), for which the results for the GI50 with BT-549 breast, in the assay on MCF7 breast and in the assay with MDA-MB-435 were > 60.5 µM, 33.2 µM and > 54.7 µM, respectively. For the same compound, the concentration for total growth inhibition (TGI) in the assay with BT-549 breast, with MCF7 breast and in the assay with MDA-MB-435 was > 100 µM each time.

As to `CON`, the GI50 in the assay with BT-549 breast, in the assay on MCF7 breast and in the assay with MDA-MB-435 was > 100 µM in each case. Moreover, the total growth inhibition concentration (TGI) in the assay with BT-549 breast, in the assay on MCF7 breast and in the assay on MDA-MB-435 was > 100 µM in each case.

Turning to `CC1(C)CC2CC(C)(CN2c2ncnc3ccc(Br)cc23)C1` (configuration not stated), in the assay on MDA-MB-435, the GI50 was 3.98 µM and the TGI was determined as 27.7 µM.

In the case of `Cc1c(N2C(=O)/C(=C\c3ccc(N(C)C)cc3)N=C2c2ccccc2)c(=O)n(-c2ccccc2)n1C`, the GI50 in the assay with BT-549 breast was 63.7 µM; in the assay on MCF7 breast, 25.7 µM; in the assay on MDA-MB-435, > 100 µM. In addition, the TGI in the assay on BT-549 breast, with MCF7 breast and in the assay with MDA-MB-435 was > 100 µM throughout.

As to `CC(=O)N[C@@H](Cc1ccc(OP(=O)(O)O)cc1)C(=O)N[C@H]1CCC(=O)N2CCC[C@@H](C(=O)NCc3ccc(O)cc3)N2C1=O`, the GI50 in the assay on BT-549 breast, in the assay on MCF7 breast and with MDA-MB-435 was > 25 µM each time. Also, the total growth inhibition concentration (TGI) in the assay on BT-549 breast, in the assay on MCF7 breast and in the assay on MDA-MB-435 was > 25 µM throughout.

As for `O=[N+]([O-])c1ccc(-c2ccccc2)c([As](=O)(O)O)c1`, the GI50 is 47.2 µM in the assay with BT-549 breast, 3.75 µM with MCF7 breast and 21.9 µM in the assay with MDA-MB-435. In addition, the figures for the TGI in the assay with BT-549 breast, in the assay with MCF7 breast and in the assay on MDA-MB-435 were > 100 µM, 16.1 µM and > 100 µM, respectively.

`CN(C)CCOc1nc2ccccc2c2c1-c1ccc(Cl)cc1C2=O`: the GI50 was 2.01 µM in the assay with BT-549 breast, 0.324 µM with MCF7 breast and 0.489 µM in the assay on MDA-MB-435. Further, the TGI in the assay on BT-549 breast amounted to 4.59 µM; with MCF7 breast, 1.39 µM; in the assay with MDA-MB-435 it was 1.88 µM.

Consider `COc1ccc(-c2cncn2-c2cc(OC)c(OC)c(OC)c2)cc1F`, for which, in the assay with BT-549 breast, the GI50 was < 0.0291 µM and the TGI was > 71.6 µM. For the same compound, in the assay with MCF7 breast, the 50% growth inhibitory concentration (GI50) was < 0.01 µM and the TGI was > 100 µM.

With `N#CC[C@H](C1CCCC1)n1cc(-c2ncnc3[nH]ccc23)cn1`, the figures for the GI50 in the assay with BT-549 breast, in the assay with MCF7 breast and with MDA-MB-435 were 12.8 µM, 17.6 µM and 26.4 µM, respectively. Further, the concentration for total growth inhibition (TGI) is 36 µM in the assay on BT-549 breast, > 86.8 µM with MCF7 breast and > 93.2 µM with MDA-MB-435.

Take `CCOC(=O)C(Cc1ccc(OC)cc1)C(=O)OCC`: the GI50 was 3.25 µM in the assay with BT-549 breast, 3.03 µM in the assay on MCF7 breast and 3.97 µM with MDA-MB-435. The TGI with BT-549 breast stood at 13.5 µM; with MCF7 breast, 13.8 µM; in the assay with MDA-MB-435, 18 µM.
